Results as given in PubChem BioAssay AID434923 (Broad Institute, 2010).
Inconclusive results are not listed. Activity calls are given as the source filed them.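 Rule for the calls: active = fitted EC50 at most tenfold above the highest tested dose; inconclusive = flat fit with 30 to 70% signal loss, or poor fit; inactive = the rest.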

Tested on: NIH-3T3 fibroblasts viability, Alamar Blue fluorescence, 48 h
Assay: NIH-3T3 fibroblast cytotoxicity, dose response, cytotoxicity control for reversing antifungal drug resistance, cell-based, Alamar Blue fluorescence (AID 434923)

SMILES	EC50
COc1ccc(-n2nc(C(=O)NCC(=O)N3CCN(c4ccccc4)CC3)c3ccccc3c2=O)c(OC)c1	> 26 µM (inactive)
COc1cc2c(cc1NC(=O)c1ccco1)CCCC2	> 26 µM (inactive)
CCCC(=O)NC(c1ccc(Cl)cc1)c1ccc2cccnc2c1O (stereo not given)	3.44 µM
CCOC(=O)c1c(-c2ccccc2Cl)cn2ccccc12	> 26 µM (inactive)
CCc1ccc2c(c1)/C(=C/C(=O)c1cccs1)C(=O)N2	14 µM
Cc1ccc(/C=C/C(=O)c2ccccc(=O)c2O)cc1C	> 26 µM (inactive)
Nc1nccnc1C(=O)Nc1nnc(SCc2ccc(Cl)cc2)s1	> 26 µM (inactive)
O=C(Nc1nnc(CCc2ccccc2)s1)c1ccco1	> 26 µM (inactive)
COc1ccc(-c2nnc(NC(=O)c3ccc(F)cc3)o2)cc1	> 26 µM (inactive)
CCCC(=O)NC(c1ccccc1)c1ccc2cccnc2c1O (stereo not given)	> 26 µM (inactive)
O=C(Nc1nnc(-c2ccc3c(c2)CCCC3)o1)c1ccc(Cl)cc1Cl	> 26 µM (inactive)
CCOC(=O)N1C(=O)C2(CCCCC2)N(c2ccc(C)cc2)C1=S	> 26 µM (inactive)
CC(C)COCc1ccc(O)c2ncccc12	< 0.1 µM
Clc1ccc2c(c1)C(c1cccs1)=NNC(c1cccnc1)=N2	> 26 µM (inactive)
O=C(Nc1sc2c(c1C(=O)c1ccc(Cl)cc1)CCCC2)c1cccnc1	> 26 µM (inactive)
O=C(Oc1c(Cl)cc(Cl)c2cccnc12)c1cccs1	21.8 µM
O=C1/C(=C\c2ccccc2)CCc2c1[nH]c1ccccc21	> 26 µM (inactive)
O=C(Nc1nnc(SCc2ccc(Cl)cc2)s1)c1ccc2ccccc2n1	12 µM
c1ccc2c(c1)OCC(CNc1ncnc3sccc13)O2 (stereo not given)	> 12 µM (inactive)
O=C(Nc1nc(-c2ccccn2)cs1)c1ccc(Br)s1	> 26 µM (inactive)
Cc1ccc(Nc2nc(N)c([N+](=O)[O-])c(N3CCC(C)CC3)n2)cc1C	> 26 µM (inactive)
O=C(Nc1nnc(-c2ccco2)o1)c1ccc(Cl)cc1	> 26 µM (inactive)
CC(C)N1CCc2c(sc(NC(=O)c3nc4ccccc4s3)c2C(N)=O)C1	> 26 µM (inactive)
Cc1nc2ccccc2cc1OCc1ccc(F)cc1	> 26 µM (inactive)
O=C(NNC1=C(C(=O)C(F)(F)F)CCC1)c1ccc(Cl)cc1	> 26 µM (inactive)
